Columns and labels:
[1] = test system: OVA-induced BAL fluid cytokine and chemokine levels in BALB/c mice; assay: BAL fluid cytokine and chemokine levels by ELISA in OVA-induced mouse asthma model; type: in vivo
Procedure: (§1) Female BALB/c mice, 6 to 8 weeks old (Interfauna, East Yorkshire, UK), were sensitized and challenged with OVA as described (24). Artesunate (3, 10, and 30 mg/kg; Sigma, St. Louis, Mo.) or vehicle (6% dimethyl sulfoxide [DMSO]) in 0.1 ml saline was given by intraperitoneal injections 2 hours before each OVA aerosol challenge. Saline aerosol was used as a negative control. Animal experiments were performed according to the Institutional guidelines for Animal Care and Use Committee of the National University of Singapore. Mice were anesthetized 24 hours after the last aerosol challenge and bronchoalveolar lavage (BAL) was performed as described (24). BAL fluid total and differential cell counts, and cytokine and chemokine levels were determined as described (24). Blood was collected by cardiac puncture, and serum levels of total IgE and OVA-specific IgE, IgG1, and IgG2a levels were determined as described (24).

[2] = test system: OVA-induced inflammatory cell recruitment in BALB/c mice; assay: BAL fluid total and differential cell counts in OVA-induced mouse asthma model; type: in vivo
Procedure: as §1

[3] = test system: OVA-induced serum Ig production in BALB/c mice; assay: Serum Ig levels by ELISA in OVA-induced mouse asthma model; type: in vivo
Procedure: as §1

[4] = test system: PI3K/Akt signaling pathway; assay: Immunoblotting of EGF-stimulated normal human bronchial epithelial cells; type: cell-based; conditions: 10 μM artesunate, pretreated 4 h; EGF 5, 15 and 30 min
Procedure: (§2) To determine the effects of artesunate on OVA-specific immune responses in lymphocytes, thoracic lymph node cells were prepared as described (24). Cells were exposed to […] OVA for 72 hours. Concanavalin A (Con A, 10 μg/ml) was used as a positive control. Supernatants from parallel triplicate cultures were analyzed for cytokine levels by ELISA. Normal human bronchial epithelial cells were cultured in optimized bronchial epithelial bulletkit medium with supplements (Lonza, Basel, Switzerland). Cells were pretreated with 10 μM artesunate or vehicle (0.01% DMSO) 4 hours before stimulation with […] epidermal growth factor (EGF). Total and nuclear proteins, and mRNA were extracted from cells at specified time intervals.
(§3) Lung and cell culture protein lysates ([…] per lane) were separated by 10% SDS-PAGE and immunoblots were developed as described (24). Immunoblots were probed with anti-Akt, anti-phospho-Akt (Ser473), anti-tuberin, anti-phosphotuberin (Ser1462), anti-p70S6K, anti-phospho-p70S6K (Ser389), anti-4E-BP1, anti phospho-4E-BP1 (Ser65), and anti-β-actin antibodies (Cell Signaling Technology, Beverly, Mass.). Proteins were separated by 10% SDSPAGE, probed with anti-Akt, anti-phospho-Akt (Ser473), anti-tuberin, antiphospho-tuberin (Ser1462), anti-p 70S6K, anti-phospho-p70S6K (Ser389), anti-4EBP1, and anti-phospho-4E-BP1 (Ser65), and developed by enhanced chemiluminescence reagent. β-actin was used as an internal control. The experiments were repeated for three times. Primers for inflammatory genes are shown in Table 1 and mRNA expression was analyzed as described (24). Nuclear proteins were analyzed for NF-κB DNA-binding activity using TransAM NF-κB transcription factor assay kit (Active Motif, Carlsbad, Calif.). Total mRNA was extracted using TriZol reagent and the PCR products were separated in a 2% agarose gel visualized under UV light. β-actin was used as an internal control. The experiments were repeated for three times

[5] = test system: normal human bronchial epithelial cells; assay: Cytokine mRNA expression in EGF-stimulated normal human bronchial epithelial cells; type: cell-based; conditions: 10 μM artesunate; EGF 12 hours
Procedure: as §2, §3

[6] = test system: human rheumatoid arthritis fibroblast-like synoviocytes; conditions: TNF-α-stimulated; cited from earlier work
[7] = test system: OVA-induced lung tissue eosinophilia and mucus hypersecretion in BALB/c mice; assay: Histologic analysis of lung tissue (H&E, PAS) in OVA-induced mouse asthma model; type: in vivo; conditions: 30 mg/kg, 24 h after last OVA challenge
Procedure: Female BALB/c mice, 6 to 8 weeks old (Interfauna, East Yorkshire, UK), were sensitized and challenged with OVA as described (24). Artesunate (3, 10, and 30 mg/kg; Sigma, St. Louis, Mo.) or vehicle (6% dimethyl sulfoxide [DMSO]) in 0.1 ml saline was given by intraperitoneal injections 2 hours before each OVA aerosol challenge. Saline aerosol was used as a negative control. Animal experiments were performed according to the Institutional guidelines for Animal Care and Use Committee of the National University of Singapore. Lungs were fixed in 10% neutral formalin, paraffinized, cut into 5-μm sections, and stained with hematoxylin and eosin (H&E) for examining cell infiltration and with periodic acid-Schiff stain (PAS) for measuring mucus production. Quantitative analysis was performed blinded as described (24). Quantitative analyses of inflammatory cell infiltration and mucus production in lung sections were performed as previously described (24). […] To determine the extent of mucus production, goblet cell hyperplasia in the airway epithelium was quantified blind using a 5-point grading system: 0, no goblet cells; 1, <25%; 2, 25-50%; 3, 50-75%; 4, >75%.

[8] = test system: OVA-induced AHR in BALB/c mice; assay: Airway hyperresponsiveness (AHR) to methacholine in mechanically ventilated mice; type: in vivo, mouse; conditions: 30 mg/kg; OVA-challenged mice; methacholine 0.5-8.0 mg/ml
Procedure: Female BALB/c mice, 6 to 8 weeks old (Interfauna, East Yorkshire, UK), were sensitized and challenged with OVA as described (24). Artesunate (3, 10, and 30 mg/kg; Sigma, St. Louis, Mo.) or vehicle (6% dimethyl sulfoxide [DMSO]) in 0.1 ml saline was given by intraperitoneal injections 2 hours before each OVA aerosol challenge. Saline aerosol was used as a negative control. […] Mice were anesthetized and tracheotomy was performed as described (24). The trachea was intubated with a cannula that was connected to the pneumotach, ventilator and nebulizer. Airway resistance (RI) and dynamic compliance (Cdyn) in response to increasing concentrations of nebulized mechacholine (0.5-8.0 mg/ml) were recorded using a whole-body plethysmograph chamber (Buxco, Sharon, Conn.) as described (24). Results are expressed as a percentage of the respective basal values in response to phosphate-buffered saline (PBS).

p65 NF-κB [9] = assay: Nuclear p65 NF-κB DNA-binding activity in lung tissues (TransAM ELISA kit); type: in vivo, mouse; conditions: 30 mg/kg; to basal level
Procedure: (§4) Female BALB/c mice, 6 to 8 weeks old (Interfauna, East Yorkshire, UK), were sensitized and challenged with OVA as described (24). Artesunate (3, 10, and 30 mg/kg; Sigma, St. Louis, Mo.) or vehicle (6% dimethyl sulfoxide [DMSO]) in 0.1 ml saline was given by intraperitoneal injections 2 hours before each OVA aerosol challenge. Saline aerosol was used as a negative control. Animal experiments were performed according to the Institutional guidelines for Animal Care and Use Committee of the National University of Singapore.
(§5) Lung and cell culture protein lysates ([…] per lane) were separated by 10% SDS-PAGE and immunoblots were developed as described (24). Immunoblots were probed with anti-Akt, anti-phospho-Akt (Ser473), anti-tuberin, anti-phosphotuberin (Ser1462), anti-p70S6K, anti-phospho-p70S6K (Ser389), anti-4E-BP1, anti phospho-4E-BP1 (Ser65), and anti-β-actin antibodies (Cell Signaling Technology, Beverly, Mass.). […] Primers for inflammatory genes are shown in Table 1 and mRNA expression was analyzed as described (24). Nuclear proteins were analyzed for NF-κB DNA-binding activity using TransAM NF-κB transcription factor assay kit (Active Motif, Carlsbad, Calif.). […]

p65 NF-κB [10] = assay: p65 NF-κB DNA-binding activity in EGF-stimulated normal human bronchial epithelial cells; type: cell-based; conditions: 10 μM artesunate; EGF 30 min
Procedure: as §2, §5

macrophages = conditions: cited from earlier work
[11] = test system: PI3K/Akt signaling pathway; assay: Immunoblotting of PI3K/Akt phosphorylation cascade in lung tissues; type: in vivo, mouse; conditions: 30 mg/kg; OVA-challenged mice; to the basal levels
Procedure: as §4, §3

[12] = test system: OVA-induced inflammatory gene expression in lung tissues; assay: Lung mRNA expression of inflammatory genes (RT-PCR); type: in vivo, mouse; conditions: 30 mg/kg pretreatment; OVA-challenged mice
Procedure: as §4, §3

[13] = test system: PI3K/Akt signaling pathway; assay: TNF-α-induced signalling in normal human bronchial epithelial cells; type: cell-based
[14] = test system: phosphoinositide 3-kinase (PI3K)/Akt signaling pathway; conditions: cited from earlier work
[15] = test system: thoracic lymph node cells; assay: OVA-specific responses in thoracic lymph node cultures from treated mice; type: cell-based, mouse
Procedure: as §2

[16] = test system: peripheral blood leukocytes; assay: Flow cytometric analysis of peripheral blood leukocytes; type: in vivo, mouse; conditions: artesunate-treated vs saline-challenged, OVA-challenged and vehicle control mice; data not shown
Procedure: BAL fluid was collected 24 hours after the last OVA or saline aerosol challenge, and total and differential cell counts were performed. […] We have conducted flow cytometric analysis of peripheral blood leukocytes obtained from saline challenged, OVA-challenged, vehicle control, and artesunate-treated mice.

[17] = 3, 10, 30 mg/kg, dose-dependent, to a lesser extent than IL-13 and eotaxin, vs DMSO control
[18] = 3, 10, 30 mg/kg, dose-dependent, vs DMSO control
[19] = 3, 10 and 30 mg/kg i.p. 2 h before each OVA challenge, 24 h after last challenge, dose-dependent, vs DMSO vehicle control
[20] = mice pretreated with 30 mg/kg, cells cultured 72 h with OVA, vs DMSO

C[C@H]1[C@H](OC(=O)CCC(=O)O)O[C@@H]2O[C@@]3(C)CC[C@H]4[C@H](C)CC[C@@H]1[C@@]24OO3 [Artesunate, artesunate]
IL-4 level in BAL fluid [1, 17]: reduced
IL-5 level in BAL fluid [1, 17]: reduced
IL-13 level in BAL fluid [1, 18]: drastically reduced
eotaxin level in BAL fluid [1, 18]: drastically reduced
IFN-γ level in BAL fluid ([1]; 10 and 30 mg/kg): up-regulated
eosinophil count in BAL fluid [2, 19]: drastically decreased
total cell count in BAL fluid [2, 19]: drastically decreased
lymphocyte count in BAL fluid ([2]; OVA-challenged mice): significant drop
serum total IgE level ([3]; 24 h after last OVA aerosol challenge): no effect
serum OVA-specific IgG2a level ([3]; OVA-challenged mice): no effects
serum OVA-specific IgE level ([3]; even at the lowest dose (3 mg/kg)): strongly suppressed
serum OVA-specific IgG1 level ([3]; suppressed to a lesser extent than OVA-specific IgE): significant effects at higher dose
EGF-induced phosphorylation of 4E-BP1 [4]: markedly inhibited
EGF-induced phosphorylation of Akt [4]: markedly inhibited
EGF-induced phosphorylation of p70S6K [4]: markedly inhibited
EGF-induced phosphorylation of tuberin [4]: markedly inhibited
EGF-induced up-regulation of IL-6 mRNA expression [5]: noticeably blocked
EGF-induced up-regulation of IL-8 mRNA expression [5]: noticeably blocked
EGF-induced up-regulation of MCP-1 mRNA expression [5]: noticeably blocked
EGF-induced up-regulation of RANTES mRNA expression [5]: noticeably blocked
production of IL-1β [6]: block
production of IL-6 [6]: block
production of IL-8 [6]: block
OVA-induced mucus hypersecretion (PAS) [7]: significantly halted
eosinophil-rich leukocyte infiltration in lung tissue (H&E) ([7]; vs DMSO control): markedly diminished
dynamic compliance (Cdyn) in response to methacholine aerosol [8]: restored
lung/airway resistance (RI) in response to methacholine aerosol [8]: dramatically reduced
OVA-induced NF-κB transactivation (p65 DNA-binding) in lung tissues (p65 NF-κB [9]): significantly suppressed
EGF-induced NF-κB transactivation (DNA binding activity) (p65 NF-κB [10]): markedly inhibited
lipopolysaccharide-induced production of IL-6 (macrophages): inhibits
lipopolysaccharide-induced production of TNF-α (macrophages): inhibits
lipopolysaccharide-induced production of nitric oxide (NO) (macrophages): inhibits
expression of TLR9 (macrophages; lipopolysaccharide-induced): inhibits
expression of toll-like receptor 4 (TLR4) (macrophages; lipopolysaccharide-induced): inhibits
phosphorylation of 4E-BP1 in lung tissues [11]: markedly reduced
phosphorylation of Akt in lung tissues [11]: markedly reduced
phosphorylation of p70S6K in lung tissues [11]: markedly reduced
phosphorylation of tuberin in lung tissues [11]: markedly reduced
lung AMCase mRNA level [12]: strong suppression
lung E-selectin mRNA level [12]: strong suppression
lung ICAM-1 mRNA level [12]: strong suppression
lung IL-17 mRNA level [12]: strong suppression
lung IL-33 mRNA level [12]: strong suppression
lung Muc5ac mRNA level [12]: strong suppression
lung TSLP mRNA level [12]: strong suppression
lung VCAM-1 mRNA level [12]: strong suppression
lung YKL-40 mRNA level [12]: strong suppression
lung Ym-2 mRNA level [12]: strong suppression
lung iNOS mRNA level [12]: strong suppression
TNF-α-induced NF-κB DNA binding activity [13]: inhibited
TNF-α-induced phosphorylation of Akt [13]: inhibited
TNF-α-induced phosphorylation of p70 S6 kinase [13]: inhibited
TNF-α-induced phosphorylation of phosphoinositide 3-kinase (PI3K) [13]: inhibited
activity against the PI3K/Akt signaling pathway [14]: strong inhibitory activity
in vitro OVA-specific IL-4 production [15, 20]: significantly (P<0.05) lowered
in vitro OVA-specific IL-5 production [15, 20]: significantly (P<0.05) lowered
in vitro OVA-specific IL-13 production [15, 20]: significantly (P<0.05) lowered
in vitro OVA-specific IFN-γ production ([15]; mice treated with 30 mg/kg, cells cultured 72 h with OVA): elevated
Con A-induced production of IL-4, IL-5, IL-13 and IFN-γ ([15]; parallel cultures, Con A 10 μg/ml, data not shown): not affected
percentages of CD3+, CD4+, CD8+ T cells, B cells, NK cells, neutrophils and monocytes in peripheral blood [16]: Similar

From patent US8293783B2, “Use of artemisinin derivatives for the treatment of asthma and chronic obstructive pulmonary disease (COPD)” (National University of Singapore, priority 2009, dated 2012)
